Legend:
[1] = test system: tumor cell lines (5637, SISO, KYSE-70, MCF-7, LCLC, A427); details: cited from earlier work
human CK2 holoenzyme [2] = target: T1, human CK2 holoenzyme (Homo sapiens, UniProt P68400); assay: biochemical; details: average percent inhibition at 10 µM
MEF = assay: Cytotoxicity WST-1 assay on MEF; assay type: cell-based, mouse; details: Mus musculus, 96 h, read-out: EC50 in µM ± SD
Description: (§1) Four cell lines of various origins were used to evaluate the cytotoxicity of our target compounds 5–7. The selected cell lines were (i) NIH-3T3, a cell line originally established from the primary mouse embryonic fibroblast cells, (ii) MEF, primary mouse embryonic fibroblasts (used at their early passages) prepared as previously described, (iii) WI-38, a human diploid cell line derived from normal embryonic lung tissue, and (iv) HEK293T, a transformed variant of the human embryonic kidney cell line HEK293. After 96 h, cytotoxicity was evaluated using the WST-1 assay. […] Seventeen compounds were evaluated on the cell lines and then compared to TBB used as a standard. […]. All cells were grown in DMEM medium supplemented with 10% fetal calf serum, glutamine (2 mM), penicillin (100 U/mL), and streptomycin (50 μg/mL) at 37 °C under a humidified 5% CO2 atmosphere (Gibco). The assays were performed in sterile 96-wells microtiter plates (Falcon). Cells were plated at 500 (NIH-3T3), 750 (WI-38) or 1000 (MEF; HEK293T) cells/100 µL/well. Drug solutions (10 μL per well) of appropriate concentration (prepared by dilution in the culture medium from 2 mM stock acetonitrile solution) were added 24 h after cell seeding. For ellagic acid and emodin, DMSO was used to prepare the stock solution. After 96 h, the cytotoxicity is evaluated using the Cell Proliferation Reagent WST-1 following the procedure described by the manufacturer (Roche Applied Science). The drugs were assayed at 10, 5, 1, 0.2 and 0.04 µM in triplicate. The vehicle was used as control. The experiments were repeated three times.

[3] = Cytotoxicity WST-1 assay, statements over the four cell lines; assay type: cell-based; details: mouse (NIH-3T3, MEF) and human (WI-38, HEK293T), WST-1, cell line not specified, read-out: EC50 (cytotoxic activity, over the cell lines)
Description: as §1

HEK293T = assay: Cytotoxicity WST-1 assay on HEK293T; assay type: cell-based, human; details: Homo sapiens, HEK-293T, 96 h, read-out: EC50 in µM ± SD
Description: as §1

NIH-3T3 = assay: Cytotoxicity WST-1 assay on NIH-3T3; assay type: cell-based, mouse; details: Mus musculus, NIH3T3, 96 h, read-out: EC50 in µM ± SD
Description: as §1

WI-38 = assay: Cytotoxicity WST-1 assay on WI-38; assay type: cell-based, human; details: Homo sapiens, WI-38, 96 h, read-out: EC50 in µM ± SD
Description: as §1

human CK2 holoenzyme [4] = target: T1, human CK2 holoenzyme; details: read-out: IC50 ± SD, assay buffer with 100 µM ATP

T1 sequence (P68400 whole entry): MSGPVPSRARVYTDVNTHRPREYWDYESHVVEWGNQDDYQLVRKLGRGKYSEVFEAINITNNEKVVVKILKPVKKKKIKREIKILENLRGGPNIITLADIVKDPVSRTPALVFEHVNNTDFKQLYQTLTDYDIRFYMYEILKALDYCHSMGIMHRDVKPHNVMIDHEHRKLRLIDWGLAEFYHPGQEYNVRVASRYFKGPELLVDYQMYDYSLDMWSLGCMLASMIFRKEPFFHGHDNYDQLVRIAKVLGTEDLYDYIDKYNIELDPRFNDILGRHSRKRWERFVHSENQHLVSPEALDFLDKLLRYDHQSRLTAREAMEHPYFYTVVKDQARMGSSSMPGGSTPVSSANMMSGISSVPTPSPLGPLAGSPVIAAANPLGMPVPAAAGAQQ
T1 sequence (P67870 whole entry partner): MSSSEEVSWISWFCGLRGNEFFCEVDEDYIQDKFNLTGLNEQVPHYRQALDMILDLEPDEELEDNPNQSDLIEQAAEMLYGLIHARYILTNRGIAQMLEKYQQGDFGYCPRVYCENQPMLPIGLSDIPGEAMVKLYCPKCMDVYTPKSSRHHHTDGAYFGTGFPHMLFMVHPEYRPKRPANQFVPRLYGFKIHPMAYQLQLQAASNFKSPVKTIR

Row | SMILES | growth of tumor cell lines [1] | inhibition at 10 µM (human CK2 holoenzyme [2]) [%] | EC50 (MEF) [µM] | EC50 at 96 h [3] [µM] | EC50 (HEK293T) [µM] | EC50 (NIH-3T3) [µM] | EC50 (WI-38) [µM] | IC50 (human CK2 holoenzyme [4]) [µM]
1 | CC(C)n1c2c(=O)ccc(=O)c2c2c(=O)c3ccccc3c21 [Compound 7h, 5-isopropyl-5H-indeno[1,2-b]indole-6,9,10-trione] | inhibited the growth | – | – | – | – | – | – | –
2 | Cc1cc(=O)c2c(c1=O)c1c(=O)c3ccccc3c1n2C(C)C [Compound 7f, 5-Isopropyl-8-methyl-5H-indeno[1,2-b]indole-6,9,10-trione] | – | 72 | > 10 | 0.4 to 8.8 | 4.4 ± 2.2 | > 10 | > 10 | 4.9 ± 0.54

— paper PMC4491662, “Synthesis, Biological Evaluation and Molecular Modeling of Substituted Indeno[1,2-b]indoles as Inhibitors of Human Protein Kinase CK2” (Pharmaceuticals, 2015)
